Assay in all cases: colorimetric pNA release, […] nm
Format in all cases: biochemical

The target of assay [1] is T1, TaeMCAII (Triticum aestivum, UniProt D1MBU0, DEL149-214).
T1 construct: gene MCAII; full-length ORF (405 residues, 44 kDa) in pET-28a(+), N-terminal His6 tag, E. coli BL21(DE3)pLysS, Ni-NTA; autoprocessed after Lys148 and Arg214 (66-residue linker removed) into 16 kDa N-terminal and 20 kDa C-terminal subunits
T1 sequence (D1MBU0 1-148): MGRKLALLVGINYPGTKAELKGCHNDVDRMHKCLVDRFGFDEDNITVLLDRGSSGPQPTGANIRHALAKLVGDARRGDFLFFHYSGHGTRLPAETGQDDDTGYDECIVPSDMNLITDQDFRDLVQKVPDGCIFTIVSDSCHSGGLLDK
T1 sequence (D1MBU0 215-405): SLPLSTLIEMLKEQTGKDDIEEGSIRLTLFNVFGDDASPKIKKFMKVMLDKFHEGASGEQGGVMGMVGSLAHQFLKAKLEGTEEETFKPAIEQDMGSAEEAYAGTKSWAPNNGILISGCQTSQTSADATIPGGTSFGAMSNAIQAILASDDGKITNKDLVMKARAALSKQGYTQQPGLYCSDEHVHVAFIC
Particulars: 50 μM Ac-VRPR-pNa, pH 7.0, 30 mM CaCl2, 10 mM DTT; 1 h preincubation at 30°C; irreversible, covalent.

The target of assay [2] is T1, TaeMCAII. Particulars: 50 μM Ac-VRPR-pNa, pH 7.0, 30 mM CaCl2, 10 mM DTT; 1 h preincubation at 30°C; competitive.
In assay [3] the target is T1, TaeMCAII. The settings on record: 50 μM Ac-VRPR-pNa, pH 7.0, 30 mM CaCl2, 10 mM DTT; 1 h preincubation at 30°C; irreversible, covalent. The source holds these as a separate data set.

As for `Cc1ccc(S(=O)(=O)N[C@@H](CCCCN)C(=O)CCl)cc1` [TLCK, N^α-tosyl-L-lysine-chloromethyl ketone], the “% decrease of activity at 100 μM” value in assay [1] is on record as 43%.
As to `CC(=O)N[C@@H](CC(C)C)C(=O)N[C@@H](CC(C)C)C(=O)N[C@H](C=O)CCCNC(=N)N` [leupeptin], in assay [2], the “% decrease of activity at 10 μM” value came out at 88%.
On to `CC(C)C[C@H](NC(=O)[C@@H]1O[C@H]1C(=O)O)C(=O)NCCCCN=C(N)N` [E-64, 1-trans-epoxysuccinylleucylamide-(4-guanido)-butane], for which the “% activity retained at 100 μM” value in assay [3] amounted to 89%.

The record behind these values is paper PMC3881575, “Biochemical and Bioinformatic Characterization of Type II Metacaspase Protein (TaeMCAII) from Wheat” (Plant Molecular Biology Reporter, 2012).
